In patent publication US7781565B2 (priority 2006, dated 2010):
“Also recorded” adds a separate entry of the source.

Each substance was assayed on NCI-60 cell lines.
Assay type: cell-based, human

Row | Substance | Cell Line with which the peptide (and its tripeptide motif) is associated | Cell Line the peptide is associated with (peptide recovered from phage library selection on this NCI-60 cell line) | Cell Line (NCI-60 cell line the peptide is associated with) | Cell Line (NCI-60 cell line the peptide and its motif are associated with)
1 | GAGSISD | RPMI-8226-Leukemia |  |  | 
2 | GAGSSVW |  | CAIK-1 Renal |  | 
3 | GAGTSEG |  | TK-10 Renal |  | 
4 | GAGVEYF |  | RXF393 Renal |  | 
5 | GAHGLVR | SR Leukemia |  |  | 
6 | GAHGVRL |  | SN12C Renal |  | 
7 | GALRVPW |  |  | HCT-15 Colon | 
8 | GARAVAP |  | HS 578 T Breast |  | 
9 | GASLTGD | H460-Lung |  |  | 
10 | GATGVSS |  |  |  | OVCAR-8 Ovarian
11 | GAVDGSR | RPMI-8226-Leukemia |  |  | 
12 | GAVLFRV | Hop-62-Lung |  |  | 
13 | GAVLTSC |  | BT-549 Breast |  | 
14 | GAVNTPA |  |  |  | SK-MEL-2 Melanoma
15 | GAVRARL | SR Leukemia |  |  | 
16 | GAVRSVM |  | TK-10 Renal |  | 
17 | GAVSVLA |  |  | SF-295 CNS | 
18 | GAVTGYP |  |  | SF-268 CNS | 
19 | GAVTSAD |  |  |  | SK-MEL-2 Melanoma
20 | GAVVKPI | A549-Lung |  |  | 
21 | GAYGGLL |  |  | SF-268 CNS | 
22 | GAYRLVS | CCRF-CEM Leukemia |  |  | 

Row | Substance | Cell Line with which the peptide (and its tripeptide motif) is associated | Cell Line the peptide is associated with (peptide recovered from phage library selection on this NCI-60 cell line) | Cell Line (NCI-60 cell line the peptide is associated with) | Cell Line (NCI-60 cell line the peptide and its motif are associated with)
23 | GCDGGSA | H23-Lung |  |  | 
24 | GCGGVRD |  |  | HT-29 Colon | 
25 | GDATLVS |  |  |  | 786-0 Renal
26 | GDCGLVG |  |  |  | PC3 Prostate
27 | GDLRVSV |  | UO31 Renal |  | 
28 | GDRAVGL |  | UO31 Renal |  | 
29 | GDRGVRG |  | A498 Renal |  | A498 Renal
30 | GDRRLVS |  | NCI/ADR-RES Breast |  | 
31 | GDSRRGV | Hop-62-Lung |  |  | 
32 | GEALGLG |  |  |  | SK-MEL-2 Melanoma
33 | GEGGSGG |  |  |  | OVCAR-5 Ovarian
34 | GEGRLCG |  | CAIK-1 Renal |  | 
35 | GEGSGSA |  | MDA-MB-435-Breast |  | 
36 | GEHGLGA | H23-Lung |  |  | 
37 | GEHLGGS | SR Leukemia |  |  | 
38 | GESGRLS | Hop-92-Lung |  |  | 
39 | GEVGLGV |  |  | HT-29 Colon | 
40 | GFASLLR |  |  | HCT-15 Colon | 
41 | GFGRLLW |  | A498 Renal |  | 
42 | GFVAGRT |  |  |  | SK-MEL-5 Melanoma
43 | GFYWLRS | Molt-4-Leukemia |  |  | 
44 | GGAGRGA |  |  |  | OVCAR-4 Ovarian

Row | Substance | Cell Line with which the peptide (and its tripeptide motif) is associated | Cell Line the peptide is associated with (peptide recovered from phage library selection on this NCI-60 cell line) | Cell Line (NCI-60 cell line the peptide is associated with) | Cell Line (NCI-60 cell line the peptide and its motif are associated with)
45 | GGAGSRR |  | UO31 Renal |  | 
46 | GGALLRG | Hop-92-Lung |  |  | 
47 | GGASLTQ |  |  | SF-295 CNS | 
48 | GGAVLVA | CCRF-CEM Leukemia |  |  | 
49 | GGFLLVS |  |  |  | SK-OV-3-3 Ovarian
50 | GGFTGGL |  |  | SF-295 CNS | 
51 | GGGLPVD |  | MDA-MB-231 Breast |  | 
52 | GGGRRAL |  |  |  | PC3 Prostate
53 | GGGRSGV | H226-Lung |  |  | 
54 | GGGSDGV | CCRF-CEM Leukemia |  |  | 
55 | GGGSGGG |  |  |  | OVCAR-4 Ovarian
56 | GGGSWLI | EKVX-Lung |  |  | 
57 | GGLEQDG |  | SN12C Renal |  | 
58 | GGLKVWR |  |  |  | PC3 Prostate
59 | GGLMPRY |  | BT-549 Breast |  | 
60 | GGLPVQM |  |  |  | PC3 Prostate
61 | GGLRGVR | A549-Lung |  |  | 
62 | GGLRVGG |  |  |  | PC3 Prostate
63 | GGLSECV | H226-Lung |  |  | 
64 | GGLSNVV |  |  | SW620-Colon | 
65 | GGLSPHR | H460-Lung |  |  | 
66 | GGLSRSN |  |  | SF-268 CNS | 

Row | Substance | Cell Line with which the peptide (and its tripeptide motif) is associated | Cell Line the peptide is associated with (peptide recovered from phage library selection on this NCI-60 cell line) | Cell Line (NCI-60 cell line the peptide is associated with) | Cell Line (NCI-60 cell line the peptide and its motif are associated with)
67 | GGLSVDL | EKVX-Lung |  |  | 
68 | GGLVKRL |  |  |  | SK-MEL-2 Melanoma
69 | GGMNGRL |  |  | HT-29 Colon | 
70 | GGPGLVM |  |  |  | OVCAR-4 Ovarian
71 | GGRAIGA | Hop-92-Lung |  |  | 
72 | GGRCGAE |  | BT-549 Breast |  | 
73 | GGRELKA |  |  |  | PC3 Prostate
74 | GGRLLRA |  |  |  | DU-145 Prostate
75 | GGRLRAV |  |  | SNB-19 CNS; also recorded: SF-539 CNS | 
76 | GGRPTVT |  | HS 578 T Breast |  | 
77 | GGRPVER |  | UO31 Renal |  | 
78 | GGRRGTS |  | MCF-7 Breast |  | 
79 | GGRRVVV |  | NCI/ADR-RES Breast |  | 
80 | GGRSKKV |  |  | SF-268 CNS | 
81 | GGRSQEG |  | UO31 Renal |  | 
82 | GGRSSHP | Molt-4-Leukemia |  |  | 
83 | GGRSWVN | RPMI-8226-Leukemia |  |  | 
84 | GGRVLGQ |  |  |  | OVCAR-4 Ovarian
85 | GGRVRGG |  |  |  | OVCAR-4 Ovarian
86 | GGSALFG |  |  | HT-29 Colon | 
87 | GGSAWWG |  |  |  | DU-145 Prostate
88 | GGSFSGL | A549-Lung |  |  | 

Row | Substance | Cell Line with which the peptide (and its tripeptide motif) is associated | Cell Line the peptide is associated with (peptide recovered from phage library selection on this NCI-60 cell line) | Cell Line (NCI-60 cell line the peptide is associated with) | Cell Line (NCI-60 cell line the peptide and its motif are associated with)
89 | GGSGELG | H23-Lung |  |  | 
90 | GGSGIGS | Hop-92-Lung |  |  | 
91 | GGSIDCC |  | SN12C Renal |  | 
92 | GGSKGSA |  |  |  | UACC 257 Melanoma
93 | GGSLKWV |  |  |  | SK-MEL-2 Melanoma
94 | GGSPGVW |  |  |  | SK-MEL-5 Melanoma
95 | GGSQCDT | K-562-Leukemia |  |  | 
96 | GGSRAAE | H322-Lung |  |  | 
97 | GGSRGYR |  | UO31 Renal |  | 
98 | GGSRLLL | RPMI-8226-Leukemia |  |  | 
99 | GGSRNRW | H226-Lung |  |  | 
100 | GGSSEFR | Hop-92-Lung |  |  | 
101 | GGSSLDA |  |  | HCT-116 Colon | 
102 | GGSTVPQ |  |  |  | OVCAR-8 Ovarian
103 | GGSVEGQ |  | ACHN Renal |  | 
104 | GGSVRHV | RPMI-8226-Leukemia |  |  | 
105 | GGVAGVS | A549-Lung |  |  | 
106 | GGVLGSD |  |  | LOX-IMVI Melanoma | 
107 | GGVLYLE | H226-Lung |  |  | 
108 | GGVRIAA |  |  | HCT-116 Colon | 
109 | GGVRLGG |  |  |  | PC3 Prostate
110 | GGVSPVD | A549-Lung |  |  | 

Row | Substance | Cell Line with which the peptide (and its tripeptide motif) is associated | Cell Line the peptide is associated with (peptide recovered from phage library selection on this NCI-60 cell line) | Cell Line (NCI-60 cell line the peptide is associated with) | Cell Line (NCI-60 cell line the peptide and its motif are associated with)
111 | GGVSRMR |  | CAIK-1 Renal |  | 
112 | GGWARAV |  |  | SNB-75 CNS | 
113 | GGYWLRS |  |  |  | M14 Melanoma
114 | GHGSGSR |  | ACHN Renal |  | 
115 | GHSERLS |  | T-47D Breast |  | 
116 | GHYRASV |  |  | HT-29 Colon | 
117 | GKALRGV | Hop-62-Lung |  |  | 
118 | GKGMGLG |  |  |  | OVCAR-5 Ovarian
119 | GLEGSGG | H23-Lung |  |  | 
120 | GLGALRW |  | NCI/ADR-RES Breast |  | 
121 | GLGAVGW |  |  | HT-29 Colon | 
122 | GLGGGGS |  |  | SF-268 CNS | 
123 | GLGGWVA | H226-Lung |  |  | 
124 | GLGIMGP | K-562-Leukemia |  |  | 
125 | GLGLRLG |  |  |  | OVCAR-8 Ovarian
126 | GLGNRPT | RPMI-8226-Leukemia |  |  | 
127 | GLGRSVN |  | T-47D Breast |  | 
128 | GLGSCAP |  | RXF393 Renal |  | 
129 | GLGVSGV | Hop-62-Lung |  |  | 
130 | GLLSAGI |  |  | SF-268 CNS | 
131 | GLLSGGT |  |  |  | IGROV1 Ovarian
132 | GLLSLXL | CCRF-CEM Leukemia |  |  | 
